Key:
Salm Typhimurium S29 = assay: Test in cooked sausage meat slurry; type: cell-based, Salmonella Typhimurium; conditions: for Total inhibition for: cooked sausage meat slurry at 8° C., pH 6.2, TSM010605
Excerpt: (§1) 500 g of bologna sausage meat mixture was mixed with 500 g Brain Heart Infusion broth (BHIB) to make a homogeneous slurry. The bologna sausage meat mix comprised (g per kg): lean beef 320; lean pork 202; lard 250; water 40; glucose 5; starch 155; spice mix 3.75; sodium glutamate 0.5; sodium erythorbate 0.545; sodium di-phosphate 3; NaCl 20; sodium nitrite 0.15. 200 g samples of the meat slurry were autoclaved. While the meat was still warm it was re-mixed thoroughly. When the meat had cooled it was inoculated with 2 ml of 10^5 cfu/ml spore or cell suspension, and re-mixed again. Each inoculated meat sample was divided into 3×50 g samples, and 1 ml of either SDW, 2.5% or 5% APP solution (batch number APP 20010215) was added to prepare meat samples containing 0, 500 and 1000 ppm APP. The meat slurry was again shaken thoroughly to ensure even mixing, an initial viable count was taken and the samples incubated at 8° C. Samples were taken at twice-weekly intervals. The pH of the sausage meat slurry was 6.2.

L. monocytogenes 272 = assay: Test in cooked sausage meat slurry; type: cell-based, Listeria monocytogenes
Excerpt: as §1

Ps. fluorescens 327 = assay: Chicken soup trial at 8° C.; type: cell-based, Pseudomonas fluorescens; conditions: chicken soup at 8° C., TCSM010521, APP215
Excerpt: (§2) A local supermarket brand of cream of chicken soup was used as a model food system. 600 g packs were purchased from the local supermarket. This was a ‘fresh home-made type’ of soup that was stored in the chill cabinet, with a short shelf life. It was chosen because it is a rich, nutritious food system containing a range of food components including meat, dairy and vegetable.
(§3) Ingredients were labelled as: chicken stock (water, duck fat, chicken, salt, flavourings, yeast extracts, pork gelatine, glucose syrup, vegetable concentrate, milk protein, sugar, malto-dextrin, vegetable oil, citric acid, lactose, chicken fat), ilk, chicken (9%), cream (8%), onion, potato, vegetable oil, modified maize starch, wheat flour, lemon juice, salt, white pepper. pH 5.912. Protein: 3.3%; carbohydrate: 4.7%; fat: 7.2%; fibre: 0.2%; sodium: 0.1%
(§4) For the test the soup was mixed 2:1 in water (to facilitate sampling and mixing) and sterilised by autoclaving at 121° C. for 15 minutes. For each experiment the pH of the soup was recorded; this was between pH 5.79-5.88.
(§5) For TCS010521/8 (incubated at 8° C.), samples were prepared in 27.8 g quantities. 1.5 g of an APP stock solution was added, and the tests inoculated with 0.3 ml of a suitably diluted cell or spore suspension to give a final inoculum of ca. 10^3 cfu/g. APP was tested at 0, 500 and 1000 ppm, and batch number APP20010213 (at 169 mg/ml) was used. The tests were sampled by viable count and then incubated at 8° C. and tested on a twice-weekly basis.

Lb. sake A10 = assay: Test in cooked minced beef slurry; type: cell-based, Lactobacillus sake
Protocol: 1 kg of minced beef, purchased from the local butcher, was mixed with 1 litre of BHI. 200 g portion of this meat slurry was autoclaved. When the meat had cooled, the pH was recorded (pH 6.24), and each pot was inoculated with 2.0 ml of 10^5 spores or cells and the meat re-mixed thoroughly. Each inoculated 200 g pot was distributed as 3×50 g portions. To each pot 1 ml of SDW, 5% or 10% APP (Batch No. APP20010215) was added, and the meat was again mixed thoroughly. An initial viable count was performed, the meat was incubated at 8° C. and sampled twice weekly. The pH of the cooked minced beef slurry was 6.24.

S. cerevisiae ATCC9763 = assay: Test in apple juice; type: cell-based, Saccharomyces cerevisiae; conditions: 2000 ppm; apple juice (pH 3.42) at 25° C., TAJ010530
Protocol: 8.9 ml apple juice samples (pH 3.42) were prepared and autoclaved. Batch number APP20010215 (at 138 mg/ml) was used to prepare filter-sterilised stock solutions for 1 ml addition to the juice to achieve 0, 1000, 2000 ppm APP. Tests were inoculated with 100 μl of an appropriately diluted overnight SLM broth of yeast culture or ascospore suspension of Byssochlamys spores prepared earlier. The tests were incubated at 25° C., and examined daily for signs of growth (e.g. turbidity, mycelium development).

B. cereus 204 = assay: Test in cooked sausage meat slurry; type: cell-based, Bacillus cereus
Excerpt: as §1

Salmonella S19 = assay: Chicken soup trial at 8° C.; type: cell-based, Salmonella sp.; conditions: 500-1000 ppm; chicken soup at 8° C., TCSM010521, APP215
Excerpt: as §2, §3, §4
as §5, with “The tests were sampled by viable count and then incubated at 8° C. and tested on a twice-weekly basis.” left out

[1] = Cooked sausage meat slurry at 8° C. pH 6.2, (1000)
[2] = 1000 ppm, cooked sausage meat slurry at 8° C., pH 6.2, TSM010605

`O=C1CC(CO)OC=C1O` (stereo not shown) [APP, Ascopyrone P] was tested. Which “Total inhibition for” value (Salm Typhimurium S29; 500 ppm) did it give?
Its value is “Total inhibition by 500 for 25 d”.

And the “Total inhibition for” value (Salm Typhimurium S29; 1000 ppm)?
Its value is “Total inhibition by 1000 ppm for >38 d”.

And the “Total inhibition (effect on growth of target organism by APP)” value (Salm Typhimurium S29; [1])?
Its value is “S. Typhimurium”.

And the “10^6 reached at” value (L. monocytogenes 272; 1000 ppm, cooked sausage meat slurry at 8° C., TSM010605, controls 7 d)?
The value was 7 d.

And the Effect on growth (L. monocytogenes 272; [2])?
Its Effect on growth is “No total inhibition”.

And the “Partial inhibition (effect on growth of target organism by APP)” value (L. monocytogenes 272; [1])?
The value was “L. monocytog”.

And the Effect on growth (Ps. fluorescens 327; 500 ppm)?
The Effect on growth was “Little effect with 500 ppm”.

What about the Counts undetectable (Ps. fluorescens 327; 1000 ppm) of the same compound?
Its Counts undetectable is “At 1000 ppm counts undetectable >7 d”.

And the “Total inhibition for” value (Ps. fluorescens 327; 1000 ppm)?
Its value is “Total inhibition by 1000 ppm for >27 days”.

And the Effect on growth (Lb. sake A10; 2000 ppm, minced beef slurry at 8° C., pH 6.24, TCM010619)?
The Effect on growth was “No effect with 2000 ppm”.

What about the “No inhibition (effect on growth of target organism by 2000 ppm APP)” value (Lb. sake A10; Cooked minced beef slurry at 8° C. pH 6.24) of the same compound?
Its value is “Lb. sake”.

And the “Growth controlled for” value (S. cerevisiae ATCC9763)?
Its value is 1 days.

And the “10^6 reached at” value (B. cereus 204; 1000 ppm, cooked sausage meat slurry at 8° C., TSM010605, controls 5 d)?
Its value is 7 d.

What about the Effect on growth (B. cereus 204; [2]) of the same compound?
The Effect on growth was “No total inhibition”.

And the “Partial inhibition (effect on growth of target organism by APP)” value (B. cereus 204; [1])?
Its value is “B. cereus (1000)”.

What about the “Total inhibition for” value (Salmonella S19) of the same compound?
The value was “Total inhibition by 500-1000 ppm for 22 d”.
